Laboratory results taken from ChEMBL document CHEMBL3217508, “Synthesis and antifungal activity of the novel triazole compounds” (2013).
In brackets after ≈: the same amount, converted by molar mass.

Experiments:
Assay type in all cases: functional
Candida parapsilosis = experiment: Antifungal activity against Candida parapsilosis assessed as growth inhibition by microbroth dilution method; details: Lodderomyces parapsilosis
Candida albicans [1] = experiment: Antifungal activity against Candida albicans Y0109 assessed as growth inhibition after 24 hrs by microbroth dilution method; details: Y0109, 24 h
Cryptococcus neoformans = experiment: Antifungal activity against Cryptococcus neoformans assessed as growth inhibition after 72 hrs by microbroth dilution method
Trichophyton rubrum [2] = experiment: Antifungal activity against Trichophyton rubrum assessed as growth inhibition by microbroth dilution method
Candida tropicalis = experiment: Antifungal activity against Candida tropicalis assessed as growth inhibition by microbroth dilution method
Aspergillus fumigatus = experiment: Antifungal activity against Aspergillus fumigatus assessed as growth inhibition by microbroth dilution method
Candida albicans [3] = experiment: Antifungal activity against Candida albicans SC5314 assessed as growth inhibition after 24 hrs by microbroth dilution method; details: SC5314, 24 h
Kluyveromyces marxianus [4] = experiment: Antifungal activity against Candida kefyr assessed as growth inhibition by microbroth dilution method
Kluyveromyces marxianus [5] = experiment: Ratio of fluconazole MIC80 to compound MIC80 against Candida kefyr
Candida albicans [6] = experiment: Ratio of fluconazole MIC80 to compound MIC80 against Candida albicans SC5314
Trichophyton rubrum [7] = experiment: Ratio of fluconazole MIC80 to compound MIC80 against Trichophyton rubrum

Row | Structure (SMILES) | MIC80 (Candida parapsilosis) [µg/mL] | MIC80 (Candida albicans [1]) [µg/mL] | MIC80 (Cryptococcus neoformans) [µg/mL] | MIC80 (Trichophyton rubrum [2]) [µg/mL] | MIC80 (Candida tropicalis) [µg/mL] | MIC80 (Aspergillus fumigatus) [µg/mL] | MIC80 (Candida albicans [3]) [µg/mL] | MIC80 (Kluyveromyces marxianus [4]) [µg/mL] | Ratio (Kluyveromyces marxianus [5]) | Ratio (Candida albicans [6]) | Ratio (Trichophyton rubrum [7])
1 | CN(Cc1cn(Cc2cccc([N+](=O)[O-])c2)nn1)CC(O)(Cn1cncn1)c1ccc(F)cc1F (stereo not drawn) | 0.0625 | < 0.125 | 0.25 (≈ 0.516 µM) | 0.0625 | 0.0625 | > 64 | 0.0156 (≈ 0.0322 µM) | 0.0156 | 64 | 32 | –
2 | CN(Cc1cn(Cc2ccc([N+](=O)[O-])cc2)nn1)CC(O)(Cn1cncn1)c1ccc(F)cc1F (stereo not drawn) | 0.25 | 0.25 (≈ 0.516 µM) | 0.25 (≈ 0.516 µM) | 1 | 0.25 | > 64 | 0.25 (≈ 0.516 µM) | 0.25 | – | – | –
3 | CN(Cc1cn(Cc2ccccc2C#N)nn1)CC(O)(Cn1cncn1)c1ccc(F)cc1F (stereo not drawn) | 0.0625 | < 0.125 | 0.25 (≈ 0.538 µM) | 1 | 0.25 | > 64 | 0.25 (≈ 0.538 µM) | 0.25 | – | – | –
4 | CN(Cc1cn(Cc2cccc(C#N)c2)nn1)CC(O)(Cn1cncn1)c1ccc(F)cc1F (stereo not drawn) | 0.25 | 0.5 (≈ 1.08 µM) | 4 (≈ 8.61 µM) | 1 | 1 | > 64 | 1 (≈ 2.15 µM) | 1 | – | – | –
5 | CN(Cc1cn(Cc2ccc(C#N)cc2)nn1)CC(O)(Cn1cncn1)c1ccc(F)cc1F (stereo not drawn) | 0.0156 | < 0.0125 | 0.25 (≈ 0.538 µM) | 0.0625 | 0.0625 | > 64 | 0.0625 (≈ 0.135 µM) | 0.0625 | 16 | 8 | 32
6 | CN(Cc1cn(Cc2cccc(F)c2)nn1)CC(O)(Cn1cncn1)c1ccc(F)cc1F (stereo not drawn) | 0.5 | 0.25 (≈ 0.546 µM) | 2 (≈ 4.37 µM) | 16 | 0.5 | > 64 | 0.25 (≈ 0.546 µM) | 64 | – | – | –
7 | CN(Cc1cn(Cc2ccc(F)cc2)nn1)CC(O)(Cn1cncn1)c1ccc(F)cc1F (stereo not drawn) | 0.25 | 0.5 (≈ 1.09 µM) | 1 (≈ 2.19 µM) | 4 | 0.25 | > 64 | 1 (≈ 2.19 µM) | 16 | – | – | –
8 | CN(Cc1cn(Cc2ccccc2Cl)nn1)CC(O)(Cn1cncn1)c1ccc(F)cc1F (stereo not drawn) | 0.25 | 0.25 (≈ 0.528 µM) | 0.25 (≈ 0.528 µM) | 4 | 1 | > 64 | 0.25 (≈ 0.528 µM) | 16 | – | – | –
9 | CN(Cc1cn(Cc2ccc(Cl)cc2)nn1)CC(O)(Cn1cncn1)c1ccc(F)cc1F (stereo not drawn) | 0.25 | < 0.125 | 1 (≈ 2.11 µM) | 4 | 1 | > 64 | 0.25 (≈ 0.528 µM) | 0.25 | – | – | –
10 | CN(Cc1cn(Cc2ccccc2Br)nn1)CC(O)(Cn1cncn1)c1ccc(F)cc1F (stereo not drawn) | 0.25 | 0.25 (≈ 0.482 µM) | 0.25 (≈ 0.482 µM) | 0.25 | 0.25 | > 64 | 0.25 (≈ 0.482 µM) | 0.0625 | – | – | –
11 | CN(Cc1cn(Cc2cccc(Br)c2)nn1)CC(O)(Cn1cncn1)c1ccc(F)cc1F (stereo not drawn) | 0.0625 | < 0.125 | 0.25 (≈ 0.482 µM) | 1 | 0.25 | > 64 | 0.25 (≈ 0.482 µM) | 0.25 | – | – | –
12 | CN(Cc1cn(Cc2ccc(Br)cc2)nn1)CC(O)(Cn1cncn1)c1ccc(F)cc1F (stereo not drawn) | 0.25 | < 0.125 | 1 (≈ 1.93 µM) | 4 | 0.25 | > 64 | 0.25 (≈ 0.482 µM) | 1 | – | – | –
13 | Cc1ccccc1Cn1cc(CN(C)CC(O)(Cn2cncn2)c2ccc(F)cc2F)nn1 (stereo not drawn) | 0.0625 | 0.25 (≈ 0.551 µM) | 0.25 (≈ 0.551 µM) | 4 | 0.25 | > 64 | 0.25 (≈ 0.551 µM) | 0.25 | – | – | –
14 | Cc1ccc(Cn2cc(CN(C)CC(O)(Cn3cncn3)c3ccc(F)cc3F)nn2)cc1 (stereo not drawn) | 0.0625 | < 0.125 | 1 (≈ 2.21 µM) | 1 | 1 | > 64 | 0.25 (≈ 0.551 µM) | 0.25 | – | – | –
15 | CN(Cc1cn(Cc2ccccc2[N+](=O)[O-])nn1)CC(O)(Cn1cncn1)c1ccc(F)cc1F (stereo not drawn) | 0.25 | < 0.125 | 1 (≈ 2.06 µM) | 4 | 1 | > 64 | 0.25 (≈ 0.516 µM) | 0.25 | – | – | –
16 | C[C@@H]1[C@H](O)[C@@H](C)/C=C/C=C/C=C/C=C/C=C/C=C/C=C/[C@H](O[C@@H]2O[C@H](C)[C@@H](O)[C@H](N)[C@@H]2O)C[C@@H]2O[C@](O)(C[C@@H](O)C[C@@H](O)[C@H](O)CC[C@@H](O)C[C@@H](O)CC(=O)O[C@H]1C)C[C@H](O)[C@H]2C(=O)O [AMPHOTERICIN B] | 1 | 4 (≈ 4.33 µM) | 4 (≈ 4.33 µM) | 0.125 | 0.25 | 32 | 8 (≈ 8.66 µM) | 0.25 | – | – | –
17 | OC(Cn1cncn1)(Cn1cncn1)c1ccc(F)cc1F [FLUCONAZOLE] | < 0.125 | 0.5 (≈ 1.63 µM) | 8 (≈ 26.1 µM) | 2 | < 0.125 | > 64 | 0.5 (≈ 1.63 µM) | 1 | – | – | –
18 | CCC(C)n1ncn(-c2ccc(N3CCN(c4ccc(OCC5COC(Cn6cncn6)(c6ccc(Cl)cc6Cl)O5)cc4)CC3)cc2)c1=O (stereo not drawn) [ITRACONAZOLE] | 0.0625 | 0.0625 (≈ 0.0886 µM) | 0.125 (≈ 0.177 µM) | 0.0625 | < 0.0625 | 2 | < 0.0625 | 0.0625 | – | – | –
19 | CC(=O)N1CCN(c2ccc(OCC3COC(Cn4ccnc4)(c4ccc(Cl)cc4Cl)O3)cc2)CC1 (stereo not drawn) [KETOCONAZOLE] | < 0.125 | < 0.125 | 0.5 (≈ 0.941 µM) | < 0.125 | < 0.125 | 0.125 | < 0.125 | 0.0625 | – | – | –
20 | CN(C/C=C/C#CC(C)(C)C)Cc1cccc2ccccc12 [TERBINAFINE] | < 0.125 | 2 (≈ 6.86 µM) | 8 (≈ 27.5 µM) | < 0.125 | < 0.125 | 0.25 | 16 (≈ 54.9 µM) | 0.0625 | – | – | –
21 | C[C@@H](c1ncncc1F)[C@](O)(Cn1cncn1)c1ccc(F)cc1F [VORICONAZOLE] | 0.25 | < 0.125 | < 0.125 | < 0.125 | < 0.125 | < 0.125 | 32 (≈ 91.6 µM) | 0.0039 | – | – | –
